Assay results as given in patent US6617342B1, “Hypoglycemic sulfonyl pyrazolones and pyrazolines” (Eli Lilly and Company, priority 1999, dated 2003).

System: obese-diabetic viable yellow (AvY) mice
Test: Demonstration of hypoglycemic efficacy: blood glucose after 14 days of compound admixed in diet
Type: in vivo
Details: blood glucose at day 14 as percent of initial (day 0) value, male AvY mice
Procedure: Male obese-diabetic viable yellow (AvY) mice were divided into two groups of 6 each. One group was fed repelletized purina 5008 Chow and the second group was fed repelletized Purina 5008 Chow, admixed with varying doses of the candidate compound. Blood samples were taken before the experiment was initiated and 7 and 14 days after initiation. Body weight and food consumption were monitored. The blood glucose level after 7 or 14 days of treatment was measured and recorded as a percent of the initial value, compared to the untreated control (first) group. The results are presented in the table 1 below; and include the dose of the candidate compound as a weight percent of the amount incorporated into the diet. Also in the table is a representative value for a positive control (a known hypoglycemic agent as disclosed by T. Sohda, K. Mizuno, Y. Momose, H. Ikeda, T. Fujita, and K. Meguro, J. Med. Chem., 1992, 35, 2617) administered in the same way as a candidate compound of the present invention.
BG means blood glucose level; BG0 means blood glucose level at day zero and BG14 means blood glucose level at day 14 accordingly. Takeda “Compound 17” is disclosed by T. Sohda, K. Mizuno, Y. Momose, H. Ikeda, T. Fujita, and K. Meguro, J. Med. Chem., 1992, 35, 2617.

[1] = dose .03 weight percent in diet (Purina 5008 Chow)

| Compound | % BG14 (BGO = 100) [1] [%] | further results |
| --- | --- | --- |
| 3-(4-(2-Phenyl-4-oxazolyl)ethoxy)phenyl-4-methylsulfonyl-1H-1,2-pyrazoline [Example 3] | – | % BG14 (BGO = 100) (dose .01 weight percent in diet (Purina 5008 Chow)): 72% |
| O=c1[nH][nH]cc1S(=O)(=O)c1ccc(OCCc2coc(-c3ccccc3)n2)cc1 [Example 1, 4-(4-[2-(2-Phenyl-4-oxazolyl)ethoxy]phenylsulfonyl)-1H,2H-prazolin-3-one] | 32 | – |
| O=c1ccn(S(=O)(=O)c2ccc3ccccc3c2)[nH]1 [Example 4, 2-Naphthylsulfonyl-pyrazolin-3-one] | – | % BG14 (BGO = 100) (dose .1 weight percent in diet (Purina 5008 Chow)): 94% |
| O=c1[nH][nH]cc1S(=O)(=O)Cc1ccc(OCCc2coc(-c3ccccc3)n2)cc1 [Example 2, 4-(4-[2-(2-Phenyl-4-oxazolyl)ethoxy]phenylmethylsulfonyl)-1H,2H-prazolin-3-one] | 81 | – |
